# According to US20140271716A1, “Intra-testicular Injection of Immunogens” (priority 2013, published 2014):
# Experiments:
# [1] = Zinc level in blood after intramuscular injection of zinc acetate; conditions: pigs, intramuscular 30 mg/kg
# [2] = Zinc level in blood after intra-testicular injection of zinc acetate; conditions: pigs; for Zinc Concentration in blood: intra-testicular 0.5 ml (74 mg/ml) each testis
smiles,measurement,setting,value
CC(=O)[O-].CC(=O)[O-].[Zn+2] [zinc acetate],Zinc Concentration in blood,[1]; 0 Min (physiological level),45.3 μ mol/L
same,Zinc Concentration in blood,[1]; 30 min,194.08 μ mol/L
same,Zinc Concentration in blood,[1]; 1 hr.,76.17 μ mol/L
same,Zinc Concentration in blood,[1]; 2 hr.,67.4 μ mol/L
same,Zinc Concentration in blood,[1]; 3 hr.,65.22 μ mol/L
same,Zinc Concentration in blood,[1]; 4 hr.,62.8 μ mol/L
same,Zinc Concentration in blood,[1]; 6 hr.,61.6 μ mol/L
same,Zinc Concentration in blood,[1]; 8 hr.,60.8 μ mol/L
same,Zinc Concentration in blood,[1]; 12 hr.,54.3 μ mol/L
same,Zinc Concentration in blood,[1]; 16 hr.,48.7 μ mol/L
same,Zinc Concentration in blood,[1]; 24 hr.,47.3 μ mol/L
same,Zinc Concentration in blood,[1]; 36 hr.,44.5 μ mol/L
same,Zinc Concentration in blood,[1]; 48 hr.,44.2 μ mol/L
same,mean residence time,[2]; intra-testicular,~60 h
same,time of second absorption phase after injection,[2]; intra-testicular,24 h
same,Zinc Concentration in blood,[2]; 0 Min (taken as zero),0 μ mol/L
same,Zinc Concentration in blood,[2]; 30 Min,8.44 μ mol/L
same,Zinc Concentration in blood,[2]; 1 hr.,7.49 μ mol/L
same,Zinc Concentration in blood,[2]; 2 hr.,5.65 μ mol/L
same,Zinc Concentration in blood,[2]; 3 hr.,5.27 μ mol/L
same,Zinc Concentration in blood,[2]; 4 hr.,4.96 μ mol/L
same,Zinc Concentration in blood,[2]; 6 hr.,4.06 μ mol/L
same,Zinc Concentration in blood,[2]; 8 hr.,4.43 μ mol/L
same,Zinc Concentration in blood,[2]; 12 hr.,3.87 μ mol/L
same,Zinc Concentration in blood,[2]; 24 hr.,4.43 μ mol/L
same,Zinc Concentration in blood,[2]; 48 hr.,3.11 μ mol/L
same,Zinc Concentration in blood,[2]; 72 hr.,−0.36 μ mol/L
same,Zinc Concentration in blood,[2]; 96 hr.,−0.29 μ mol/L
